ChEMBL document CHEMBL1130809, “Anti-inflammatory/antiarthritic ketonic bisphosphonic acid esters” (1998)

What was measured:
Assay type in all cases: functional
Settings in all cases: route oral
Mus musculus [1] = assay: Inhibition of delayed type hypersensitivity granuloma in mice following 10 mg/kg p.o. administration.
Mus musculus [2] = assay: Inhibition of antigen-induced arthritis in mice following 10 mg/kg p.o. administration.
Mus musculus [3] = assay: Compound was tested for antiarthritic activity in murine model of antigen-induced arthritis. upon 10 mg/kg peroral administration
Mus musculus [4] = assay: Compound was tested for antiarthritic activity in murine model of antigen-induced arthritis upon 10 mg/kg peroral administration
Mus musculus [5] = assay: Compound was tested for anti-inflammatory activity in delayed type hypersensitivity granuloma upon 100 mg/kg peroral administration
Mus musculus [6] = assay: Compound was tested for antiarthritic activity in murine model of antigen-induced arthritis upon 100 mg/kg peroral administration

SMILES	inhibition in vivo at 10 mg/kg (Mus musculus [1]) [%]	inhibition in vivo at 10 mg/kg (Mus musculus [2]) [%]	also measured
CCOP(=O)(OCC)C(CCC(=O)c1ccco1)P(=O)(OCC)OCC	23	11	
CCOP(=O)(OCC)C(CCC(=O)c1cccnc1)P(=O)(OCC)OCC	51	61	
CCOP(=O)(OCC)C(CCC(=O)c1ccccn1)P(=O)(OCC)OCC	43	47	
CCOP(=O)(OCC)C(CCC(=O)c1cccc(NS(C)(=O)=O)c1)P(=O)(OCC)OCC	37	33	
CCOP(=O)(OCC)C(CCC(=O)c1ccc(NC(=O)c2ccccc2)cc1)P(=O)(OCC)OCC	63	4	
CCOP(=O)(OCC)C(CCC(=O)c1cccc(Br)c1)P(=O)(OCC)OCC	59	22	
CCOP(=O)(OCC)C(CCC(O)c1ccccc1)P(=O)(OCC)OCC (stereo not given)	39		
CCOP(=O)(OCC)C(CCC(=O)c1cccc(F)c1)P(=O)(OCC)OCC	44	40	ED30 (Mus musculus [3]): 0.1 mg/kg
CC1(C)COP(=O)(C(CCC(=O)c2cccnc2)P2(=O)OCC(C)(C)CO2)OC1	38	28	ED30 (Mus musculus [3]): 0.4 mg/kg
CCOP(=O)(OCC)C(CCC(=O)c1cccc(Cl)c1)P(=O)(OCC)OCC	10	26	
CCOP(=O)(OCC)C(CCCc1ccccc1)P(=O)(OCC)OCC	44	11	
CCOC(=O)Nc1ccc(C(=O)CCC(P(=O)(OCC)OCC)P(=O)(OCC)OCC)cc1	43	18	
CC1(C)COP(=O)(C(CCC(=O)c2ccccc2)P2(=O)OCC(C)(C)CO2)OC1	36		
CC1(C)COP(=O)(C(CCC(=O)c2ccoc2)P2(=O)OCC(C)(C)CO2)OC1	45	16	
CCOP(=O)(OCC)C(CCC(=O)c1cccc(I)c1)P(=O)(OCC)OCC	5		
CCOP(=O)(OCC)C(CCC(=O)c1ccccc1)P(=O)(OCC)OCC	51	10	
CCOP(=O)(OCC)C(CC(=O)c1ccccc1)P(=O)(OCC)OCC	7	11	
CCOP(=O)(OCC)C(CCC(=O)c1ccc(NC(C)=O)cc1)P(=O)(OCC)OCC	75	10	
CC1(C)COP(=O)(C(CCC(=O)c2cccc(F)c2)P2(=O)OCC(C)(C)CO2)OC1	< 57	48	ED30 (Mus musculus [3]): 0.01 mg/kg
CCOP(=O)(OCC)C(CC(C(=O)c1ccccc1)c1ccccc1)P(=O)(OCC)OCC (stereo not given)	65		ED30 (Mus musculus [4]): 50 mg/kg; inhibition in vivo at 10 mg/kg (Mus musculus [4]): 54%
O=P(O)(O)C(Cl)(Cl)P(=O)(O)O [CLODRONIC ACID]			ED30 (Mus musculus [5]): 30 mg/kg; inhibition in vivo at 100 mg/kg (Mus musculus [5]): 48%; ED30 (Mus musculus [6]): 50 mg/kg; inhibition in vivo at 100 mg/kg (Mus musculus [6]): 42%
